From the OPERA property sets (Mansouri et al. 2018)

Compound | logP
Cc1cc2n(c1C(=O)c1ccccc1)CCC2C(=O)O (stereo not given) | 2.85
COc1cccc(C(=O)NC2CCN(Cc3ccc(F)cc3)CC2)c1OC | 2.87
CN1C(O)C(O)C(O)C(O)C1CO (stereo not given) | -2.4
CCCOc1ccc(OCC(OC(=S)n2ccnc2)C(C)(C)C)cc1 (stereo not given) | 5.03
Nc1ccc(S(=O)(=O)N2C(=O)NC(=O)C2(c2ccccc2)c2ccccc2)cc1 | 3.27
CCC(CC)COC(N)=O | 1.98
Nc1nc(=O)c2[nH]c(N)c(Cc3cccs3)c2[nH]1 | 1.01
N[C@H]1CCc2ccccc2[C@H]1O | 0.86
CNC(=S)NCC#CCC(NC(=O)C(Cc1ccc2ccccc2c1)Cc1cccc2ccccc12)C(=O)NC(CC1CCCCC1)C(O)CC(=O)NCCN1CCOCC1 (stereo not given) | 5.46
CC(C)(C)C(COc1ccc([N+](=O)[O-])cc1)OC(=O)n1ccnc1 (stereo not given) | 3.35
NC(=O)c1csc([C@@H]2O[C@H](CO)[C@@H](O)[C@H]2O)n1 | -1.73
O=C(O)CCCCCOc1cccc2ccccc12 | 4.5
CC(=O)CC(c1ccc([N+](=O)[O-])cc1)c1c(O)c2ccccc2oc1=O (stereo not given) | 1.98
O=C(OCC1OC(n2cc(I)c(=O)[nH]c2=O)CC1O)c1ccc([N+](=O)[O-])cc1 (stereo not given) | 1.24
Cc1ccccc1C(=O)C(C)CN1CCCCC1 (stereo not given) | 3.69
CCCCCCn1ccc(=O)c(O)c1CC | 2.28
Cc1nc(N)sc1C(=O)CCN1CCCC1 | 1.74
CCc1nc2cccc(C)n2c(=O)c1C | 1.87
COC(=O)NC1=NCC(c2cccc(F)c2)N1 (stereo not given) | 1.41
CC(=O)N1CCCC1=O | -0.05
COC(=O)Nc1nc2cc(C(=O)c3ccccc3)ccc2n1C(=O)OC | 2.47
CC(C)OC(=O)C(C(=O)OC(C)C)=C1SC=CS1 | 3.75
OC1CCN(Cc2cccc(COc3ccccc3)c2)CC1 | 2.77

Compound | logP
CCCCCCCCO[C@@H]1O[C@H](CO)[C@H](O)[C@H](O)[C@H]1O | 1.46
O=c1c2ccccc2nc2n1CCCCC2 | 2
CCOC(=O)Nc1ccc2c(c1)N(C(=O)CCN1CCOCC1)c1ccccc1S2 | 2.98
NC(=O)COc1ccc(OCCNCC(O)COc2ccccc2)cc1 (stereo not given) | 1.1
CN(Cc1ccccc1)C(=O)C(Cc1ccccc1)NC(=O)C(Cc1cn(C(=O)OC(C)(C)C)c2ccccc12)NC(=O)CC1NC(=O)C2C3CCC(CC3)N2C1=O (stereo not given) | 5.33
CN[C@@H](C)[C@H](O)c1ccccc1.Cl | -2.45
CCOC(=O)c1cc(=O)[nH]c(=O)[nH]1 | 0.68
Cc1ccc(Nc2c([N+](=O)[O-])c(C)nn2-c2ccccc2)cc1 | 3.43
Cc1nn(-c2ccccc2)c(Nc2ccc(C(F)(F)F)cc2)c1[N+](=O)[O-] | 3.89
COc1cccc2c1C(=O)c1c(O)c3c(c(O)c1C2=O)CC(O)(C(C)=O)CC3OC1CC(N(CC#N)CC(=O)O)C(O)C(C)O1 (stereo not given) | 0.03
CCCC(=O)n1c(=O)[nH]cc(F)c1=O | 0.67
N#CCCO | -0.94
CN1C(=O)NC(c2ccccc2)(c2ccccc2)C1=O | 2.28
CC1CC2CC=CCC2(N)c2ccccc21 (stereo not given) | 3.4
Cc1ccc(Cc2cnc(NCCCCc3ncc(Br)cc3C)[nH]c2=O)cn1 | 3.57
CS(=O)(=O)c1ccc(OCC(=O)O)cc1 | 0.06
CC[C@H](C)C(=O)O[C@H]1CCC=C2C=C[C@H](C)[C@H](CC[C@@H]3C[C@@H](O)CC(=O)O3)[C@H]21 | 3.95
NC(=O)Cc1ccc(C(=O)O)cc1 | 0.3
O=C1NC(=O)C(Cc2ccccc2)(Cc2ccccc2)N1 | 2.46
CC1CCCc2ncc(C(N)=O)c(=O)n21 (stereo not given) | 0.04
CCNc1nc(C)c(C(=O)CCN(C)C)s1 | 2.21
NC(=O)NCCC[C@H](N)C(=O)O | -3.19
O=[N+]([O-])c1cnc(-c2ccc(F)cc2)n1CCO | 1.33

Compound | logP
NC(=O)c1cc2ccccc2[nH]1 | 1.61
CCC(=O)n1c(=O)[nH]cc(F)c1=O | 0.19
CC(C)(C)C(COc1ccc(Br)cc1)OC(=O)n1ccnc1 (stereo not given) | 4.37
CC(=O)C1CCC2C3CC(C)C4=CC(=O)CCC4(C)C3C(=O)CC12C (stereo not given) | 2.75
O=C1C[N+]([O-])=C(c2ccccc2)c2cc(Cl)ccc2N1CCO | 0.82
NC(=O)NCCCCn1nc(-c2ccccc2)ccc1=O | 1.21
ClC(Br)Br | 2.16
CN(C)C(=O)n1cc(F)c(=O)[nH]c1=O | -0.37
N=C(N)NN=Cc1ccc(Cl)c([N+](=O)[O-])c1 | 0.53
CCCN(C)C(=O)c1cccc(Oc2ccccc2)c1 | 3.44
COc1c(O)c(Cl)c(Cl)c(Cl)c1Cl | 4.59
CCC(=O)OCOC(=O)c1cn(CC)c2nc(C)ccc2c1=O | 1.7
OCCN(CCO)CCCc1ccc(CSc2ccccc2)cc1 | 3.31
CC(C)c1ncc([N+](=O)[O-])[nH]1 | 0.9
Nc1ccn(C2OC(CO)CC2F)c(=O)n1 (stereo not given) | -1.18
CNC(=O)N(C)c1nnc(C(F)(F)F)s1 | 1.85
CC1(C)S[C@@H]2[C@H](NC(=O)C3(N)CCCCC3)C(=O)N2[C@H]1C(=O)O | 1.31
CN1CC(O)CN(C)C1=Nc1ncc([N+](=O)[O-])s1 (stereo not given) | 0.16
Cc1cc2c(cc1S(N)(=O)=O)S(=O)(=O)NC=N2 | -0.32
COc1ncc(-c2ccncc2)cc1C#N | 2.02
COC(=O)NC1=NCC(c2cc(Br)ccc2Br)N1C (stereo not given) | 2.77
NS(=O)(=O)c1ccc(Cl)c([N+](=O)[O-])c1 | 0.66
OCCN(CCO)Cc1cccc(COc2ccccc2)c1 | 2.33

Compound | logP
Nc1cc(Cl)c(Cl)cc1Cl | 3.45
CCC1(O)CC2CN(CCc3c([nH]c4ccccc34)C(C(=O)OC)(c3cc4c(cc3OC)N(C)C3C(O)(C(=O)OC)C(OC(=O)CN(C)C)C5(CC)C=CCN6CCC43C65)C2)C1 (stereo not given) | 4.02
CC(=O)OCC1=C(C(=O)OCOC(=O)C(C)(C)C)N2C(=O)C(NC(=O)CSc3ccncc3)C2SC1 (stereo not given) | 1.63
CCOC(=O)C1=C(C)NC(C)=C(C(=O)OCC)C1c1ccccc1/C=C/C(=O)OC(C)(C)C | 5.2
CNC12CCCCC1CCc1ccc(OC)cc12 (stereo not given) | 3.75
CC(=O)Nc1ccc2c(c1)S(=O)(=O)c1ccc(C)cc1C2=O | 2.76
COC(=O)c1ccccc1O | 2.55
Cc1onc(-c2c(F)cccc2Cl)c1C(=O)NC1C(=O)N2C1SC(C)(C)C2C(=O)O (stereo not given) | 2.58
COCN(C#N)C1CC(OC2CC(O)(C(C)=O)Cc3c(O)c4c(c(O)c32)C(=O)c2c(OC)cccc2C4=O)OC(C)C1O (stereo not given) | 2.64
COc1ncnc(NS(=O)(=O)c2ccc(N)cc2)c1OC | 0.7
COCCn1ccc(=O)c(O)c1C | -0.41
CSc1ccc(OCc2ncc([N+](=O)[O-])n2C)cc1 | 2.5
CCOC(=O)CN(C(=O)CCl)c1ccccc1OC(C)C | 2.75
CN(Cc1ccccc1)C(=O)C(Cc1ccccc1)NC(=O)C(Cc1cn(C(=O)OCc2ccccc2)c2ccccc12)NC(=O)CC1NC(=O)C2C3CCC(CC3)N2C1=O (stereo not given) | 5.66
Nc1nc(=O)n(C2OC(CO)CC2F)cc1F (stereo not given) | -0.92
CCCCC(=O)OCC1OC(n2cc(F)c(=O)[nH]c2=O)CC1OC(=O)CCCC (stereo not given) | 2.72
NS(=O)(=O)c1ccc2c(c1)S(=O)(=O)NC(C(Cl)Cl)N2 (stereo not given) | 0.51
CCOc1cccc(-c2nnc(S)n(C)c2=O)c1 | 2.67
O=[N+]([O-])c1cnc(N2CCNC2=S)s1 | 1.7
CCOCCOCCOP(=S)(N1CC1)N1CC1 | 0.38
COc1ccc(C(O)C(=O)O)cc1 (stereo not given) | 0.63
